For 15 compounds, TGI results are on record in PubChem BioAssay (NCI).

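Method: 48-hour compound exposure of cells in 96-well plates, five concentrations, linear interpolation of endpoints. TGI marks complete inhibition of growth.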 Where only a bound is given, the exact number is not on record here.

Among the test systems are SW-620 colon; 786-0 renal; MCF7 breast; SR leukemia; NCI-H23 lung; CCRF-CEM leukemia; TK-10 renal; MOLT-4 leukemia; SK-MEL-2 melanoma; NCI/ADR-RES ovarian; HS 578T breast.
Experiment in all cases: inhibition of tumour cell growth, NCI panel, 48 h

For the compound `CCOC(=O)CSc1[nH]c(NC(=S)Nc2ccccc2)c(C(N)=O)c1C(N)=O`, the TGI in the assay on SW-620 colon, in the assay with 786-0 renal, with MCF7 breast, in the assay on SR leukemia, with NCI-H23 lung and in the assay on CCRF-CEM leukemia was over 10 µM throughout. The TGI in the assay with TK-10 renal and with MOLT-4 leukemia was over 10 µM in each case.

As for `COc1ccc(/C=N/NC(=O)c2cnc3[nH]c(=O)n(C)c(=O)c3c2)cc1`, the TGI in the assay with SW-620 colon, with 786-0 renal, in the assay on MCF7 breast, with SK-MEL-2 melanoma, with NCI-H23 lung and in the assay with CCRF-CEM leukemia was over 100 µM each time. The TGI with NCI/ADR-RES ovarian, in the assay with TK-10 renal, with MOLT-4 leukemia and in the assay with HS 578T breast was over 100 µM throughout.

`CCc1nc2ccc(C(F)(F)F)cc2[nH]c1=O`: the TGI in the assay with SW-620 colon, in the assay on 786-0 renal, in the assay with MCF7 breast, in the assay with SK-MEL-2 melanoma, in the assay on NCI-H23 lung and in the assay with CCRF-CEM leukemia was over 100 µM in each case. The TGI with NCI/ADR-RES ovarian, in the assay on TK-10 renal, in the assay on MOLT-4 leukemia and with HS 578T breast was over 100 µM throughout.

As to `Cc1ccc(S(=O)(=O)NC(=O)NC(Cc2ccc(O)c(O)c2)C(=O)O)cc1` (stereo not given), the TGI is 61.9 µM in the assay with SW-620 colon; 34.6 µM in the assay on 786-0 renal; over 100 µM in the assay on MCF7 breast; over 100 µM in the assay on SK-MEL-2 melanoma; over 100 µM in the assay on NCI-H23 lung; 63 µM in the assay on CCRF-CEM leukemia. In addition, the TGI in the assay with NCI/ADR-RES ovarian, with TK-10 renal and with MOLT-4 leukemia was over 100 µM each time.

`CCN(CC)CCCC(C)NC(=O)c1ccc2c(c1)C(=O)c1ccccc1C2=O` (stereo not given): the TGI with SW-620 colon turned out to be 43.1 µM; in the assay on 786-0 renal, 39.5 µM; in the assay on SR leukemia, 78.1 µM; in the assay with SK-MEL-2 melanoma it was 38.9 µM; in the assay with NCI-H23 lung, 24.2 µM; with CCRF-CEM leukemia it was 61.2 µM. Moreover, the TGI in the assay on TK-10 renal amounted to 66.5 µM; with MOLT-4 leukemia it was 52.8 µM.

As for `c1ccc2c(c1)CC1COc3ccccc3C1O2` (stereo not given), the TGI with SW-620 colon, with 786-0 renal, in the assay on MCF7 breast, in the assay on SR leukemia, with SK-MEL-2 melanoma and in the assay with NCI-H23 lung was over 100 µM each time. Moreover, the TGI in the assay with CCRF-CEM leukemia, in the assay on NCI/ADR-RES ovarian, in the assay with TK-10 renal and in the assay on MOLT-4 leukemia was over 100 µM each time.

As to `CCCCCCC(C)OC(=O)/C=C(\CC(=O)OC(C)CCCCCC)C(=O)OC(C)CCCCCC` (stereo not given), the TGI in the assay with SW-620 colon, in the assay on 786-0 renal, in the assay on SK-MEL-2 melanoma, in the assay on NCI-H23 lung, in the assay with TK-10 renal and with MOLT-4 leukemia was over 100 µM each time.

Regarding `CC(C)OC(=O)[C@@H](O)[C@H](CO)C1=CC([Si](C)(C)c2ccccc2)=CON1`, the TGI in the assay on SW-620 colon, in the assay on 786-0 renal, in the assay with MCF7 breast, with SR leukemia, in the assay with SK-MEL-2 melanoma and with NCI-H23 lung was over 100 µM in each case. The TGI in the assay on NCI/ADR-RES ovarian, in the assay with TK-10 renal and in the assay on MOLT-4 leukemia was over 100 µM throughout.

As for `COc1ccccc1NC(=O)O/N=C(/Cl)C(C)C`, the TGI is 3.39 µM in the assay on SW-620 colon; 24.9 µM with 786-0 renal; 4.73 µM in the assay on SR leukemia; 31 µM in the assay with SK-MEL-2 melanoma; 28.8 µM in the assay on NCI-H23 lung; 3.57 µM in the assay on CCRF-CEM leukemia. For the same compound, the TGI with NCI/ADR-RES ovarian came out at 35.5 µM; in the assay with TK-10 renal, 26.5 µM; in the assay with MOLT-4 leukemia, 4.5 µM; in the assay on HS 578T breast it was 67.9 µM.

In the case of `C=C1C(=O)O[C@@H]2[C@H](O)[C@@H](C)[C@@H]3C=CC(=O)[C@@]3(C)[C@H](OC(=O)C=C(C)C)[C@H]12`, the TGI in the assay on SW-620 colon came out at 1.18 µM; in the assay on MCF7 breast, 1.81 µM; in the assay with SK-MEL-2 melanoma it was 2.84 µM; in the assay on NCI-H23 lung, 2.88 µM; in the assay on CCRF-CEM leukemia, 0.461 µM; with NCI/ADR-RES ovarian, 6.42 µM. The compound also gave a TGI in the assay on MOLT-4 leukemia of 0.725 µM.

`Clc1c(C(Cl)(Cl)Cl)nsc1N1CCCCC1`: the TGI is over 100 µM in the assay with SW-620 colon; 39.2 µM with 786-0 renal; 69.3 µM with MCF7 breast; 36.5 µM in the assay with SR leukemia; 34.7 µM in the assay on NCI-H23 lung; 40.5 µM in the assay on CCRF-CEM leukemia. Besides, the TGI in the assay with TK-10 renal was over 100 µM; in the assay on MOLT-4 leukemia it was 37.3 µM; with HS 578T breast, over 100 µM.

Consider `COc1ccc(-c2cc(-c3cc(F)c(Cl)cc3Cl)on2)cc1OC`, for which the TGI with SW-620 colon is over 100 µM; in the assay on 786-0 renal, over 100 µM; in the assay with SR leukemia it was 13.1 µM; in the assay on SK-MEL-2 melanoma, 97.7 µM; in the assay on NCI-H23 lung, over 100 µM; in the assay on CCRF-CEM leukemia, over 100 µM. The TGI with NCI/ADR-RES ovarian was over 100 µM; in the assay with TK-10 renal it was over 100 µM; with MOLT-4 leukemia, 49.5 µM; with HS 578T breast, over 100 µM.

`CC(NC(C#N)CC12CC3CC(CC(C3)C1)C2)c1ccccc1` (stereo not given): the TGI was over 100 µM in the assay with SW-620 colon; over 100 µM in the assay with MCF7 breast; over 100 µM with SR leukemia; 59.4 µM with CCRF-CEM leukemia; over 100 µM in the assay with NCI/ADR-RES ovarian; over 100 µM in the assay with TK-10 renal. The compound also showed a TGI in the assay with MOLT-4 leukemia of over 100 µM.

With `O=C1c2ccccc2C(=O)c2c(O)ccc(O)c21`, the TGI in the assay on SW-620 colon, in the assay with 786-0 renal, with SK-MEL-2 melanoma, in the assay on NCI-H23 lung, with CCRF-CEM leukemia and in the assay with TK-10 renal was over 100 µM each time. Besides, the TGI with MOLT-4 leukemia is over 100 µM.

Turning to `CC(=O)OCC1=C(C)C[C@H]([C@@H](COC(C)=O)C2CCC3C4C[C@H]5O[C@]56CC=CC(=O)[C@]6(C)C4CC[C@@]32C)OC1=O` (stereo not given in full), the TGI came to 0.322 µM with SW-620 colon; 1.58 µM with 786-0 renal; 2.09 µM in the assay on MCF7 breast; 0.123 µM in the assay with SR leukemia; 1.64 µM in the assay with SK-MEL-2 melanoma; 3.59 µM in the assay with NCI-H23 lung. Besides, the TGI with CCRF-CEM leukemia turned out to be 0.353 µM; in the assay with TK-10 renal, 19.2 µM; in the assay on MOLT-4 leukemia it was 0.233 µM; in the assay with HS 578T breast it was 17.8 µM.
